From PubChem BioAssay (NCI)
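Results reflect a 48-hour exposure of cells in 96-well plates to compound at five concentrations. At the TGI there is no net growth.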 *1 amine or outer side, *2 acyl side, *3 side chain or, on linkers, in order; H or OH if unused. Where a SMILES comes first, the peptide text is derived from it. Bridges are numbered along the chain shown (N, C = ends). Roman numbers before positions name the chains, in order. [ ]: non-standard residue; d: D form. Actinocin(9to1) = Cc1c2oc3c(C)ccc(C(=O)[*:1])c3nc-2c(C(=O)[*:2])c(N)c1=O; Hyp = O=C(O)[CH]1C[CH](O)CN1; NMeV = CN[CH](C(=O)O)C(C)C; Sar = CNCC(=O)O

Legend:
Assay in all cases: growth of human tumour cells (NCI), 48 h
NCI-H522 lung = tested on: NCI-H522 lung
MOLT-4 leukemia = tested on: MOLT-4 leukemia
786-0 renal = tested on: 786-0 renal
HT29 colon = tested on: HT29 colon
OVCAR-5 ovarian = tested on: OVCAR-5 ovarian
UACC-62 melanoma = tested on: UACC-62 melanoma
TK-10 renal = tested on: TK-10 renal
HCT-116 colon = tested on: HCT-116 colon
MDA-MB-435 = tested on: MDA-MB-435
ACHN renal = tested on: ACHN renal
MDA-N = tested on: MDA-N
K-562 leukemia = tested on: K-562 leukemia
SF-268 CNS = tested on: SF-268 CNS
MALME-3M melanoma = tested on: MALME-3M melanoma
HOP-62 NSCLC = tested on: HOP-62 NSCLC

SMILES	TGI (NCI-H522 lung) [µM]	TGI (MOLT-4 leukemia) [µM]	TGI (786-0 renal) [µM]	TGI (HT29 colon) [µM]	TGI (OVCAR-5 ovarian) [µM]	TGI (UACC-62 melanoma) [µM]	TGI (TK-10 renal) [µM]	TGI (HCT-116 colon) [µM]	TGI (MDA-MB-435) [µM]	TGI (ACHN renal) [µM]	TGI (MDA-N) [µM]	TGI (K-562 leukemia) [µM]	TGI (SF-268 CNS) [µM]	TGI (MALME-3M melanoma) [µM]	TGI (HOP-62 NSCLC) [µM]
c1ccc(Nc2nn3c(CCCCCCCCc4nnc5sc(Nc6ccccc6)nn45)nnc3s2)cc1	81.2	41.7	79.5	77.5	> 100	> 100	> 100	> 100	84	> 100	46.6	37.6	> 100	> 100	> 100
CCOC1NC(=O)Oc2cc3ccccc3cc21 (stereo not given)	> 100	> 100	> 100	> 100	> 100	> 100	> 100	> 100	> 100	> 100	> 100	> 100	> 100	> 100	> 100
O=c1c2cnccc2cc2c3ccccc3ccn12	> 100	91.8	> 100	> 100	> 100	> 100	> 100	> 100	> 100	> 100	> 100	> 100	> 100	> 100	> 100
Cc1c2oc3c(C)ccc(C(=O)NC4C(=O)NC(C(C)C)C(=O)N5CC(O)CC5C(=O)N(C)CC(=O)N(C)C(C(C)C)C(=O)OC4C)c3nc-2c(C(=O)NC2C(=O)NC(C(C)C)C(=O)N3CC(O)CC3C(=O)N(C)CC(=O)N(C)C(C(C)C)C(=O)OC2C)c(N)c1=O (stereo not given) (I: TV[Hyp][Sar][NMeV] / II: TV[Hyp][Sar][NMeV]; ester I:1-I:C, II:1-II:C; linker I:N-II:N via Actinocin(9to1); configuration not given here)	> 1	> 1	> 1	> 1	> 1		> 1	> 1	> 1	> 1	> 1	> 1	> 1	> 1	> 1
Nc1ccc2ccc(N3CCNCC3)nc2n1	> 100	> 100	> 100	> 100	> 100	> 100	> 100	> 100	> 100	> 100	> 100	> 100	> 100	> 100	> 100
CCCCc1ccc(Nc2nc(Cl)c3c(ncn3C3CC(Oc4ccc(C)cc4)C(COc4ccc(C)cc4)O3)n2)cc1 (stereo not given)	> 100	> 100	> 100	> 100	> 100	> 100	> 100	> 100	> 100	> 100	> 100	> 100	> 100	> 100	> 100
C/C=C(\C)C(=O)O[C@@H]1CC(C)(C)CC2C3=CCC4[C@]56CC[C@](O)(OC5)C(C)(C)C6CC[C@@]4(C)C3(C)CC[C@]21C(=O)O (stereo not given in full)	> 100	> 100	> 100	> 100	> 100	> 100	> 100	> 100	> 100	> 100	> 100	> 100	> 100	> 100	> 100
O=[N+]([O-])c1cc(F)ccc1S(=O)(=O)c1ccccc1	5.34	> 10	> 10	> 10	> 10	> 10	> 10	> 10	> 10	> 10	> 10	> 10	> 10	> 10	> 10
O=c1[nH]c2nccn2c2c1SCCN2	> 100	> 100	> 100	> 100	> 100	> 100	> 100	> 100	> 100	> 100	> 100	> 100	> 100	> 100	> 100
COc1cc(Cc2cnc(N)nc2N)cc(OC)c1OCCCNc1ccc([N+](=O)[O-])cc1	26.3	8.66	28	14.8	35.5	26.7	32.7	30.4	29.8	37.8	32.9	> 100	74	25.8	27.4
COc1ccc2c(c1)NC1(CCN(CCCC(=O)c3ccc(F)cc3)CC1)N=N2	33.9	41.4	36.9	69.4	61.1	41.6	62.2	36	31.4	> 100	31.6	41	> 100	30.6	60.3
CN1CCc2c(sc3ncn(Nc4ccc(Cl)cc4)c(=N)c23)C1	> 100	> 100	> 100	> 100	> 100	> 100	> 100	> 100	> 100	> 100	> 100	> 100	> 100	> 100	> 100
O=C1CSC(c2ccc([N+](=O)[O-])cc2)N1c1ccc(-c2ccc(-n3c(-c4ccccc4)nc4ccccc4c3=O)cc2)cc1 (stereo not given)	> 100	> 100	> 100	> 100	> 100	> 100	> 100	> 100	> 100	> 100	> 100	> 100	> 100	> 100	> 100
COC(=O)c1c2c(cc3c1CC1(Cc4cc5c(c(C(C)=O)c4C1)CCCC5)C3)CCCC2 (stereo not given)	> 100		> 100	> 100	> 100	> 100	> 100	> 100	> 100	> 100	> 100	> 100		> 100	> 100
C=CCOC(=O)N1c2ccc(O)cc2[C@@]23O[C@@]24[C@@H]1C#C/C=C\C#C[C@]3(O)C(OC)(OC)C[C@@H]4C	74.6	> 100	78.3	49.8	> 100	> 100	> 100	> 100	53.7	72.3	77.5	> 100	> 100	82	85.9
COc1ccc(-c2ncn(C[Si](C)(C)C)c2-c2ccc(OC)cc2)cc1	16.2	4.22	18.7	10.8	18.3	10.2	20	13	13	20.5	10.9	10.6	28.7	23.7	30.7
CCC(CC)(CO)CNc1cc(Cl)nc(N)n1	> 100	> 100	> 100	> 100	> 100	> 100	> 100	> 100	> 100	> 100	> 100	> 100	> 100	> 100	> 100
N/C(=N\Nc1ccc(Cl)cc1)c1cnccn1	> 100	> 100	> 100	> 100	> 100	> 100	> 100	> 100	> 100	> 100	> 100	> 100	> 100	> 100	> 100
C#C[C@@]1(O)CCCC2=CC3(CC[C@]21C)SCCS3	> 100	> 100	> 100	> 100	> 100	> 100	> 100	> 100	> 100	> 100	> 100	> 100	> 100	> 100	> 100
CCN(CC)CCn1c(=O)c2c(C)c3oc4ccccc4oc3c(C)c2c1=O	> 100	> 100	> 100	> 100	> 100	> 100	> 100	> 100	> 100	> 100	> 100	> 100	> 100	> 100	> 100
O=C(CN1CCCCC1)Nc1ccc2c(c1)C1Oc3ccccc3CC1CO2 (stereo not given)	36.3	> 100	45.8	29.1	38.2	34.1	50.9	35.2	38.4		36.7	> 100	> 100	32.2	34.1
O=C(c1cccnc1)N1N=C(c2ccccc2)CC1(O)c1cc(F)c(Cl)cc1Cl (stereo not given)	> 100	> 100	53.6	> 100	> 100		> 100	30.6	> 100	58.5	> 100	80.4	> 100	83	39.1
